Data: ChEMBL document CHEMBL3507680, “University of Dundee, Gates Library screen for HepG2 cell viability”

Assay: Human HepG2 cell viability assay in 384 well format
Type: toxicity, cell-based
Set-up: dose 125 nL, time 70.5 hour; cytotoxicity at 70.5 h: concentration not given beside the values
Details: HepG2 cells, read-out: Inhibition

Row | SMILES | cytotoxicity at 70.5 h [%]
1 | COc1ccc(C(=O)NCc2ccc(C(=O)O)o2)cc1 | 27.3
2 | CC(=O)c1c(N(C)C)ccnc1C(F)(F)F | -6.51
3 | CCn1cc(NS(=O)(=O)c2ccc(F)cc2)c(C(=O)NCC(C)C)n1 | -1.23
4 | O=C(c1ccc(COc2ccccc2Cl)o1)N1N=CCC1(O)C(F)(F)F (stereo not drawn) | -4.75
5 | O=C1CCC(=O)c2oc3ccc(Br)cc3c2N1 | -12.5
6 | O=C1CCC(=O)c2oc3ccc(Cl)cc3c2N1 | -14
7 | CC1=C(C(N)=O)C(c2cn(C)nc2C)N2C(=O)CSC2=N1 (stereo not drawn) | -9.38
8 | O=C(CCS(=O)(=O)c1ccccc1)NCCCn1cccn1 | -16.1
9 | CCn1cc(CN2CCN(C(=O)c3cc(C)c(C)s3)CC2)c(C)n1 | -10.4
10 | CCn1cc(CN2CCN(C(=O)c3cc(Br)cs3)CC2)c(C)n1 | 22.9
11 | Cc1nn(C)cc1-c1cc(-c2cn(C)nc2C)n(CC(=O)NC2CC2)n1 | -7.88
12 | O=C(c1cnn2c(-c3ccco3)ccnc12)N1CCCCCC1 | -8.53
13 | CC1CCN(C(=O)c2cnn3c(-c4ccco4)ccnc23)CC1 | -8.7
14 | Cc1nn(C)cc1-c1cc(C(F)(F)F)nc(NC2CCCCC2)n1 | -9.44
15 | Cc1nn(C)cc1-c1cc(C(F)(F)F)nc(NC2CCN(C)CC2)n1 | -4.19
16 | Cc1nn(C)cc1S(=O)(=O)NCC(C)Cn1cc(Cl)cn1 (stereo not drawn) | 3.54
17 | Cc1noc(C)c1S(=O)(=O)N(C)Cc1nn(C)c(Cl)c1Cl | 24.3
18 | Cc1c(S(=O)(=O)N(CCc2ccccc2)Cc2ccn(C)n2)cnn1C | -8.56
19 | Cc1nn(C)c(C)c1S(=O)(=O)N(C)Cc1nn(C)c(Cl)c1Cl | 18.2
20 | O=C(Cn1cc(C(=O)O)cn1)Nc1c(Cl)cccc1Cl | -5.99
21 | CCn1ccc(-c2cc(C(=O)O)n3ncc(Br)c3n2)n1 | -11.6

Row | SMILES | cytotoxicity at 70.5 h [%]
22 | CCn1ncc2c(C(F)(F)F)cc(-c3ccn(C)n3)nc21 | -8.47
23 | CCCn1ncc2c(C(=O)NC(C)Cn3cccn3)cc(C3CC3)nc21 (stereo not drawn) | -13.1
24 | COC(=O)CNC(=O)c1cc(-c2ccccc2)nc2ncnn12 | -0.256
25 | CCOc1ccc2oc(-c3cn(C)nc3C)c(O)c(=O)c2c1 | 32.5
26 | COc1ccc2oc(-c3cn(C)nc3C)c(O)c(=O)c2c1 | -1.34
27 | CC(=O)c1c(C)nn(S(=O)(=O)c2ccc(F)cc2)c1C | 1.95
28 | c1cncc(CNc2ccccc2-c2nn[nH]n2)c1 | -5.95
29 | COc1ccc(-c2cc(C3(O)CCOC(C)(C)C3)on2)cc1 (stereo not drawn) | -11.5
30 | O=C1N[C@H]2OCCC[C@H]2[C@H](c2ccccc2)N1 | -12.3
31 | c1ccc2c3c([nH]c2c1)C(c1nn[nH]n1)CCC3 (stereo not drawn) | -10.7
32 | Brc1ccc2[nH]c3c(c2c1)CCCC3c1nn[nH]n1 (stereo not drawn) | -14.8
33 | COc1c(Br)c(CC2CC(CO)=NO2)c(OC)c2c1OCO2 (stereo not drawn) | -9.88
34 | COc1cc(CC2CC(C(N)=O)=NO2)cc2c1OCO2 (stereo not drawn) | -7.88
35 | Cc1cc(N)n(-c2ccc3nnc(C)n3n2)n1 | 6.51
36 | COc1ccc(C2=NOC(CC#N)C2)cc1 (stereo not drawn) | -1.51
37 | COc1ccc(C2=NOC(CO)C2)cc1 (stereo not drawn) | -14.5
38 | CNc1[nH]nc(N)c1C(=O)Nc1ccccc1 | 2.68
39 | Cn1ncc2c1NC(=O)CC2c1ccc(F)cc1 (stereo not drawn) | 1.96
40 | COc1ccccc1CNC(=O)c1[nH]ncc1Cl | 6.24
41 | CC(=O)Oc1ccnc(C(F)(F)F)c1C(C)=O | -3.5
42 | COc1cc(-c2n[nH]c(CC#N)n2)cc(OC)c1OC | 51.6

Row | SMILES | cytotoxicity at 70.5 h [%]
43 | COC(=O)CCn1ccc(=O)c2ccc(OC)cc21 | 19.7
44 | O=C(NCCCO)c1nnsc1-c1ccc(Cl)cc1 | -13.1
45 | Cc1ncc2c(n1)CCCC2NC(=O)c1ccccc1C(=O)O (stereo not drawn) | -13.5
46 | O=C(c1cc(-c2cccs2)cs1)N1CCSCC1 | -5.68
47 | O=C(NCC1CCCO1)c1cc(Sc2ncccn2)ccn1 (stereo not drawn) | 24.8
48 | Cc1cccc(C(=O)Nc2c(C(=O)N(C)C)nn(C)c2C)c1 | -3.25
49 | Cc1ccc(C(=O)Nc2c(C(=O)N(C)C)nn(C)c2C)cc1C | -4.41
50 | Cc1nn(C)cc1C(=O)NCc1csc(C2CC2)n1 | 18.9
51 | CCn1cc(CCC(=O)NCc2csc(C3CC3)n2)c(C)n1 | -11.7
52 | CCn1cc(C(=O)NCc2csc(C3CC3)n2)c(C)n1 | -3.62
53 | Cc1ccc2c(cnn2CCC(=O)NCc2csc(C3CC3)n2)c1 | 22.8
54 | Cn1ncc(C(=O)N2CCN(CCS(C)(=O)=O)CC2)c1Cl | 18.4
55 | O=C(c1ccc(-c2ccc(O)nc2)s1)N1CCCCCC1 | -10.4
56 | Cc1nc(Nc2nnc(C)s2)cc(C2CCCN2C2CCCC2)n1 (stereo not drawn) | -5.26
57 | Cc1cnc(N)c(C(=O)C2CCN(C(=O)C3CCC3)CC2)c1 | 11.3
58 | O=C(c1ccncc1)N1CCCC(c2ncncc2-c2ccncc2)C1 (stereo not drawn) | -4.43
59 | Cc1cc(-c2cnc(N3CCC(O)CC3)nc2-c2cccnc2C)on1 | 8.43
60 | Cc1cc(-c2cnc(N3CCCCCC3)nc2-c2cccnc2C)on1 | -12.8
61 | COc1cc(C2Nc3cc(Cl)ccc3C3=NCCN32)ccc1O (stereo not drawn) | -8.38
62 | NC(=O)C1CCN(c2ncc(-c3cnccn3)c([C@H]3CCCO3)n2)CC1 | -11.5
63 | CNc1cncc(C2CCCN2c2cc(C)ncn2)n1 (stereo not drawn) | 17.1

Row | SMILES | cytotoxicity at 70.5 h [%]
64 | CC(=O)N1CCCC(c2ccc(N3CCN(C)CC3)cn2)C1 (stereo not drawn) | -3.54
65 | COc1cccc(CN2CCC(c3nn(CCN)c4nccnc34)C2)c1 (stereo not drawn) | 17
66 | CN1CCCCC1c1ncc2c(n1)CCN(Cc1ccc(Cl)c(F)c1)C2 (stereo not drawn) | -3.53
67 | O=C(C1CCCO1)N1CCC(O)(Cn2ccc3ccncc32)CC1 (stereo not drawn) | 15.9
68 | Cc1cc2c(=O)n3c(nc2s1)CCN(C(=O)c1ccnn1C(C)C)CC3 | -7.45
69 | Cc1cc2c(=O)n3c(nc2s1)CCN(C(=O)c1c(C)noc1C)CC3 | -3.89
70 | C[C@@H]1C[C@H](C(F)(F)F)n2nc(C3CCN(S(C)(=O)=O)CC3)cc2N1 | -2.94
71 | C[C@@H]1C[C@H](C(F)(F)F)n2nc(C3CCN(S(=O)(=O)N(C)C)CC3)cc2N1 | -5.83
72 | Cc1ccc(S(=O)(=O)N2C[C@H]3C[C@H](NC(=O)c4cnn(C)c4)[C@H]3C2)cc1 | 33.7
73 | O=S1(=O)NC(C2CCN(Cc3ccncc3)CC2)Nc2ccccc21 (stereo not drawn) | 23.9
74 | Cc1cc(-c2cnc(N3CCNC(=O)C3)nc2-c2ccoc2C)on1 | -6.66
75 | CC(=O)N1CCCC(c2ccc(Cc3ccccc3)cn2)C1 (stereo not drawn) | 20
76 | O=c1c2sccc2nc2n1CCN(Cc1ccc(F)c(F)c1)CC2 | -9.83
77 | C[C@H](N)Cn1nc(-c2cccs2)oc1=O | -1.53
78 | O=C(CN1CCCC1=O)N1CCC(O)(Cn2ccc3ccncc32)CC1 | -5.71
79 | COc1cccc(CN2CCc3nc4ccsc4c(=O)n3CC2)c1 | 12.2
80 | CCOc1ccccc1CN1CCc2nc3ccsc3c(=O)n2CC1 | -7.1
81 | CCOc1cc(CN[C@@H]2COC[C@H]2Cc2cc(C)no2)ccc1O | -2.12
82 | OC1CCN(Cc2ccnc(-c3cccnc3)n2)CC1 | -7.13
83 | OC1CCCN(Cc2ccnc(-c3cccnc3)n2)C1 (stereo not drawn) | -4.64
